Measured values taken from the NIST ThermoML archive (doi:10.1016/j.jct.2018.09.036).
± gives the expanded uncertainty stated by the source.

Experiment: mn = molality of the nth substance listed, in mol/kg
Conditions: 298.15 K, 99.7 kPa, Liquid; for viscosity: Falling or rolling sphere viscometry; for mass density: Vibrating tube method

CCCCn1cc[n+](C)c1.[Br-] [1-butyl-3-methylimidazolium bromide] + O
Conditions | mass density [kg/m3] | viscosity [mPa·s]
m1 = 0.15 | 1004.39 ± 0.34 | 0.922 ± 0.02
m1 = 0.3 | 1011.43 ± 0.41 | 0.974 ± 0.021
m1 = 0.45 | 1018.2 ± 0.5 | 1.028 ± 0.022
m1 = 0.6 | 1024.73 ± 0.6 | 1.084 ± 0.024
m1 = 0.7 | 1028.96 ± 0.66 | 1.121 ± 0.025
m1 = 0.8 | 1033.08 ± 0.35 | 1.164 ± 0.025

CCn1cc[n+](C)c1.[Br-] [1-ethyl-3-methylimidazolium bromide] + O
Conditions | mass density [kg/m3] | viscosity [mPa·s]
m1 = 0.15 | 1004.96 ± 0.34 | 0.899 ± 0.019
m1 = 0.3 | 1012.56 ± 0.43 | 0.93 ± 0.02
m1 = 0.45 | 1019.92 ± 0.53 | 0.961 ± 0.021
m1 = 0.6 | 1027.01 ± 0.64 | 0.992 ± 0.021
m1 = 0.7 | 1031.63 ± 0.71 | 1.013 ± 0.022
m1 = 0.8 | 1036.11 ± 0.35 | 1.036 ± 0.022

NCC(=O)O [2-aminoacetic acid] + O
Conditions | mass density [kg/m3] | viscosity [mPa·s]
m1 = 0.1 | 1000.22 ± 0.31 | 0.902 ± 0.019
m1 = 0.15 | 1001.78 ± 0.32 | 0.908 ± 0.019
m1 = 0.2 | 1003.34 ± 0.33 | 0.914 ± 0.019
m1 = 0.25 | 1004.88 ± 0.34 | 0.92 ± 0.02
m1 = 0.3 | 1006.42 ± 0.35 | 0.927 ± 0.02
m1 = 0.35 | 1007.94 ± 0.31 | 0.934 ± 0.02

CCCCCCn1cc[n+](C)c1.[Br-] [3-hexyl-1-methyl-1H-imidazolium bromide] + O
Conditions | mass density [kg/m3] | viscosity [mPa·s]
m1 = 0.15 | 1003.87 ± 0.33 | 0.947 ± 0.02
m1 = 0.3 | 1010.37 ± 0.4 | 1.018 ± 0.022
m1 = 0.45 | 1016.58 ± 0.47 | 1.093 ± 0.024
m1 = 0.6 | 1022.49 ± 0.56 | 1.169 ± 0.026
m1 = 0.7 | 1026.26 ± 0.6 | 1.221 ± 0.027
m1 = 0.8 | 1029.91 ± 0.35 | 1.273 ± 0.027

O [water] + CCCCCCn1cc[n+](C)c1.[Br-]
Conditions | viscosity [mPa·s]
m2 = 0 | 0.89 ± 0.019

O [water] + CCCCn1cc[n+](C)c1.[Br-]
Conditions | viscosity [mPa·s]
m2 = 0 | 0.89 ± 0.019

O [water] + CCn1cc[n+](C)c1.[Br-]
Conditions | viscosity [mPa·s]
m2 = 0 | 0.89 ± 0.019

O [water] + NCC(=O)O
Conditions | viscosity [mPa·s]
m2 = 0 | 0.89 ± 0.019
